Assay results published in patent publication EP4426265B1, “OPHTHALMIC COMPOSITION COMPRISING A LUBRICANT AGENT AND VERBASCOSIDE, AND SAID COMPOSITION FOR USE IN THE PREVENTIVE OR CURATIVE TREATMENT OF A CORNEAL EPITHELIAL DEFECT AND/OR A CONJUNCTIVAL DEFECT IN A SUBJECT” (NOVAX PHARMA S.A.M., priority 2021, dated 2023).

Conditions: not told

Row | percentage average value (%av) of permeability | SMILES
1 | 0.9% | OB(O)O [Boric acid]
2 | not measurable | C[C@@H]1O[C@@H](O[C@@H]2[C@@H](O)[C@H](OCCc3ccc(O)c(O)c3)O[C@H](CO)[C@H]2OC(=O)/C=C/c2ccc(O)c(O)c2)[C@H](O)[C@H](O)[C@H]1O [VERBASCOSIDE, Verbascoside]
